Source: PubChem BioAssay (NCI)
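Assay format: 96-well plates, 48-hour exposure. At the GI50, growth is halved. TGI denotes the concentration required for complete inhibition of growth.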

How the values were obtained:
Test in all cases: inhibition of tumour cell growth, NCI panel, 48 h
HCT-116 colon = test system: HCT-116 colon
786-0 renal = test system: 786-0 renal
EKVX NSCLC = test system: EKVX NSCLC
TK-10 renal = test system: TK-10 renal
DU-145 prostate = test system: DU-145 prostate
SK-MEL-5 melanoma = test system: SK-MEL-5 melanoma
MDA-MB-435 = test system: MDA-MB-435
UACC-257 melanoma = test system: UACC-257 melanoma

Structure (SMILES) | GI50 (HCT-116 colon) | TGI (HCT-116 colon) | GI50 (786-0 renal) | TGI (786-0 renal) | GI50 (EKVX NSCLC) | TGI (EKVX NSCLC) | GI50 (TK-10 renal) | TGI (TK-10 renal) | GI50 (DU-145 prostate) | TGI (DU-145 prostate) | GI50 (SK-MEL-5 melanoma) | TGI (SK-MEL-5 melanoma) | GI50 (MDA-MB-435) | TGI (MDA-MB-435) | GI50 (UACC-257 melanoma) | TGI (UACC-257 melanoma)
COc1ccc(-c2cncn2-c2cc(OC)c(OC)c(OC)c2)cc1F | < 0.0158 µM | 15.8 µM | < 0.0214 µM | > 49.2 µM | 0.153 µM | > 100 µM | 18.4 µM | > 100 µM | < 0.0342 µM | > 100 µM | < 0.01 µM | 13.1 µM |  |  |  | 
Cc1ccc(-c2cc(/C=N/O)on2)cc1 | 71.4 µM | > 100 µM | 50.4 µM | > 100 µM | 43.3 µM | > 100 µM | 63.8 µM | > 100 µM | 68.7 µM | > 100 µM |  |  | 52.1 µM | > 100 µM | 67.5 µM | > 100 µM
CCOC(=O)C(Cc1ccc(OC)cc1)C(=O)OCC | 4.45 µM | 15.6 µM | 6.19 µM | 18.7 µM | 5.84 µM | 23.7 µM | 8.22 µM | 26.2 µM | 2.65 µM | 7.71 µM | 3.65 µM | 15.3 µM | 3.97 µM | 18 µM | 3.31 µM | 16.3 µM
COc1ccc(-n2sc(=O)n(Cc3ccc(COC(=O)C(C)c4ccc(CC(C)C)cc4)cc3)c2=O)cc1 (centres undefined) | 0.979 µM | 2.08 µM | 6.13 µM | 12.9 µM | 7.36 µM | 14.3 µM | 0.997 µM | 2.17 µM | 1.85 µM | 6.34 µM | 7.41 µM | 14.5 µM | 1.32 µM | 3.93 µM | 2.02 µM | 8.81 µM
CON | > 100 µM | > 100 µM | > 100 µM | > 100 µM | > 100 µM | > 100 µM | > 100 µM | > 100 µM | > 100 µM | > 100 µM | > 100 µM | > 100 µM | > 100 µM | > 100 µM | > 100 µM | > 100 µM
CC(=O)/C=C/C1=C(c2ccsc2)c2ccccc2CC1 | 22.8 µM | 50.3 µM | 34.1 µM | > 100 µM | 35.9 µM | > 100 µM | 33.6 µM | > 100 µM | 40.8 µM | > 100 µM | 16.3 µM | 31.6 µM | 17.9 µM | 33.8 µM |  | 
CCOc1cc(/C=N\NC(=O)N/N=C/c2ccc(O)c(OCC)c2)ccc1O | 0.866 µM | > 100 µM | 7.68 µM | > 100 µM | 4.38 µM | > 100 µM | > 29.1 µM | > 100 µM | 2.21 µM | > 100 µM | 1.05 µM | 18 µM |  |  | 72.1 µM | > 100 µM
CC(C)N(C[C@H]1O[C@@H](n2cnc3c(N)ncnc32)[C@H](O)[C@@H]1O)C1CC(CCc2nc3ccc(C(C)(C)C)cc3[nH]2)C1 (some centres undefined) | > 68 µM | > 100 µM | > 100 µM | > 100 µM |  |  | > 100 µM | > 100 µM | > 100 µM | > 100 µM | > 95.1 µM | > 100 µM | > 54.7 µM | > 100 µM | > 58.7 µM | > 100 µM
ClC1=C(Cl)C(Cl)=C(Cl)C1=Cc1ccc(Cl)cc1 | 0.237 µM | 0.638 µM | 0.604 µM | 1.64 µM | 0.816 µM | 3.08 µM | 0.331 µM | 0.899 µM | 0.629 µM | 2.07 µM | 1.17 µM | 2.41 µM | 0.507 µM | 2.95 µM | 1.37 µM | 3.3 µM
C=C1CO[C@@H]2C[C@@H]1CC/C(C)=C/CC/C(C)=C/CC[C@@]2(C)O | 17.2 µM | 31.4 µM | 17.5 µM | 32.9 µM | 22.4 µM | 45.2 µM | 18.4 µM | 36.2 µM | 18.5 µM | 38.3 µM | 18.5 µM | 34.5 µM | 20.9 µM | 42.2 µM | 16.8 µM | 39.1 µM
c1cnc2c(c1)Nc1cnncc1S2 |  | > 100 µM |  | > 100 µM |  | > 100 µM |  | > 100 µM |  | > 100 µM |  | > 100 µM |  | > 100 µM |  | > 100 µM
O=P1(O)c2ccccc2CS(=O)(=O)Cc2ccccc21 |  | > 100 µM |  | > 100 µM |  | > 100 µM |  | > 100 µM |  | > 100 µM |  | > 100 µM |  | > 100 µM |  | > 100 µM
CN(NC(=O)CC(=O)NN(C)C(=S)c1ccc(Cl)cc1)C(=S)c1ccc(Cl)cc1 | 10.7 µM | > 100 µM | 24.6 µM | > 100 µM | 18.8 µM | > 100 µM | 23 µM | > 100 µM | 21.9 µM | > 100 µM | 15.4 µM | 46 µM | 24.4 µM | > 100 µM |  | 
C/C(=N\Nc1cccc(Cl)n1)c1ccccn1 | 0.401 µM | > 100 µM | 0.671 µM | 17.5 µM | 0.411 µM | 18.6 µM | 0.7 µM | > 100 µM | 0.692 µM | > 100 µM | 1.62 µM | 4.62 µM | 1.78 µM | > 100 µM | 2.27 µM | 7.51 µM
O=C(Nc1ccc(S(=O)(=O)NC2CCCCCC2)cc1)C(c1ccccc1)S(=O)(=O)c1ccc(F)cc1 (centres undefined) | 0.185 µM | 1.7 µM | 0.448 µM | 2.68 µM | 0.377 µM | 2.95 µM | 0.331 µM | 3.66 µM | 0.261 µM | 2.68 µM | 0.404 µM | 1.72 µM | 0.313 µM | 1.43 µM | 0.621 µM | 2.98 µM
CC(=O)N[C@@H](Cc1ccc(OP(=O)(O)O)cc1)C(=O)N[C@H]1CCC(=O)N2CCC[C@@H](C(=O)NCc3ccc(O)cc3)N2C1=O | > 25 µM | > 25 µM | > 25 µM | > 25 µM |  |  | > 25 µM | > 25 µM | > 25 µM | > 25 µM | > 25 µM | > 25 µM | > 25 µM | > 25 µM | > 25 µM | > 25 µM
